Test results published in patent publication US9932381B2, “Exendin-4 derivatives as selective glucagon receptor agonists” (priority 2014, dated 2018).
pEC50: −log10 of the molar value. Non-standard residues stand in square brackets, D forms with d. Residues, ends and D or L forms follow the SMILES beside them. Ala(4-thiazolyl) = N[C@@H](Cc1cscn1)C(=O)O; Nle = CCCC[C@H](N)C(=O)O

Legend:
[1] = Solubility testing of exendin-4 derivatives (HPLC-UV of supernatant); type: physicochemical; conditions: pH 7.4
Experimental: Prior to the testing of solubility and stability of a peptide batch, its content was determined. Therefore, two parameters were investigated, its purity (HPLC-UV) and the amount of salt load of the batch (ion chromatography).
HPLC-UV was performed after 2 h of gentle agitation from the supernatant, which was obtained by 20 min of centrifugation at 4000 rpm.

[2] = target: T1, human glucagon receptor (hGLUC R) (Homo sapiens, UniProt P47871); experiment: cAMP response (HTRF) of HEK-293 cells stably expressing human glucagon receptor; type: cell-based; conditions: Table 4; read-out: EC50 hGLUC R
T1 construct: expressed in transfected cells; host or cells: HEK-293
How it was run: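 HEK-293 cells stably expressing the receptor were resuspended at 400000 cells/ml in HBSS/20 mM HEPES/0.1% BSA buffer with 2 mM IBMX. Cells were stimulated with compound for 30 min at room temperature. Intracellular cAMP was measured by HTRF.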

[3] = target: T2, human GLP-1 receptor (hGLP-1 R) (Homo sapiens, UniProt P43220); experiment: cAMP response (HTRF) of HEK-293 cells stably expressing human GLP-1 receptor; type: cell-based
T2 construct: expressed in transfected cells; host or cells: HEK-293
Experimental: cAMP content of cells was determined using a kit from Cisbio Corp. (cat. no. 62AM4PEC) based on HTRF (Homogenous Time Resolved Fluorescence). For preparation, cells were split into T175 culture flasks and grown overnight to near confluency in medium (DMEM/10% FBS). Medium was then removed and cells washed with PBS lacking calcium and magnesium, followed by proteinase treatment with accutase (Sigma-Aldrich cat. no. A6964). Detached cells were washed and resuspended in assay buffer (1×HBSS; 20 mM HEPES, 0.1% BSA, 2 mM IBMX) and cellular density determined. They were then diluted to 400000 cells/ml and 25 μl-aliquots dispensed into the wells of 96-well plates. For measurement, 25 μl of test compound in assay buffer was added to the wells, followed by incubation for 30 minutes at room temperature. After addition of HTRF reagents diluted in lysis buffer (kit components), the plates were incubated for 1 hr, followed by measurement of the fluorescence ratio at 665/620 nm. In vitro potency of agonists was quantified by determining the concentrations that caused 50% activation of maximal response (EC50).

hepatic glycogenolysis = experiment: Blood glucose profile in anesthetized rats; type: in vivo, male Wistar rats; conditions: for effect on blood glucose: 10 to 30 μg/kg s.c.
Experimental: The method aimed to study a test compound on the process of hepatic glycogenolysis. The rats had free access to food until the start of the experiment. […] The effect of GCG-mimetic on hepatic glycogenolysis and the subsequent hyperglycemic peak in the blood was compared to the effect obtained with a subcutaneous bolus injection of GCG at a dose of 30 μg/kg.
Rats were anaesthetized with an intraperitoneal injection of pentobarbital sodium (60 mg/kg) and ketamine (10 mg/kg) and tracheotomized. Anesthesia was maintained for up to 5 hours by subcutaneous infusion of pentobarbital sodium (adjusted to the anesthetic depth of the individual animal; about 24 mg/kg/h). Body temperature was monitored with a rectal probe thermometer, and temperature was maintained at 37° C. by means of a heated surgical table. Blood samples for glucose analysis (10 μl) were obtained from the tip of the tail every 15 minutes. The rats were allowed to stabilize their blood glucose levels after surgery for up to 2 hours. Then, GCG as reference compound, or the test compound were administered subcutaneously. For GCG a dose of 30 μg/kg was used to induce hepatic glycogenolysis.

blood glucose = experiment: Blood glucose profile in normoglycemic Beagle dogs; type: in vivo, male normoglycemic Beagle dogs; conditions: for effect on blood glucose relative to human glucagon: s.c. injection; for induction of a blood glucose response, SEQ. ID 5 vs. SEQ. ID 6: normoglycemic dogs
Experimental: Male normoglycemic Beagle dogs were fasted overnight before and during the entire experiment. The animals were randomized to groups of n=6 per group. […] The injection solutions were prepared freshly prior to the experiment. The test compound was administered as a single injection via three different routes (s.c., i.m. and i.v.) at doses of 1-100 μg/kg. […] Blood glucose was determined enzymatically (hexokinase method) from whole blood, insulin was analyzed from K-EDTA plasma with a dog-specific ELISA assay.

T2 sequence (P43220 24-463): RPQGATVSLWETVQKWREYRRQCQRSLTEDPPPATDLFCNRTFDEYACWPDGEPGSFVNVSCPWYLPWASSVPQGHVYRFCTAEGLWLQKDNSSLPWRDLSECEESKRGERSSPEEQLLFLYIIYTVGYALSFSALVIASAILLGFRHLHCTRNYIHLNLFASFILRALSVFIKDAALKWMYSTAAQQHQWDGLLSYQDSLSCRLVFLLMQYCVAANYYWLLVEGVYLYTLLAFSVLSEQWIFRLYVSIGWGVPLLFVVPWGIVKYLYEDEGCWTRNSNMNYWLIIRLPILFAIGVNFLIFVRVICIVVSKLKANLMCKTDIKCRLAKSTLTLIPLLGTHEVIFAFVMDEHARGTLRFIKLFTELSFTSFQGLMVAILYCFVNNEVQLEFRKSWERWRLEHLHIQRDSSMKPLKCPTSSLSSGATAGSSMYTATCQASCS
T1 sequence (P47871 26-477): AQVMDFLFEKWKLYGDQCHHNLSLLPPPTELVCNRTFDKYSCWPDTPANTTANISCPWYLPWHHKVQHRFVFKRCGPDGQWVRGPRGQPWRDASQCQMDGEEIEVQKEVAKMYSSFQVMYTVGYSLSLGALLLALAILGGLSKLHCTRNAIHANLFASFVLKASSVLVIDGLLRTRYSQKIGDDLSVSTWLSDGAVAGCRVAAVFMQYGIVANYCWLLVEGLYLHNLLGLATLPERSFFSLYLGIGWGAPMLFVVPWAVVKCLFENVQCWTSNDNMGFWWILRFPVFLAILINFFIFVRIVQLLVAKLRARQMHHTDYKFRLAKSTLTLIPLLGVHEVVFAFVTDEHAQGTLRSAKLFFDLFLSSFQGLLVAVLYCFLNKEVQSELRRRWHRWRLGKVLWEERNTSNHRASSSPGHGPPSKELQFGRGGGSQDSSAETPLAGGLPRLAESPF

`CCCC[C@H](NC(=O)[C@H](CCC(N)=O)NC(=O)[C@H](CCCCN)NC(=O)[C@H](CO)NC(=O)[C@H](CC(C)C)NC(=O)[C@H](CC(=O)O)NC(=O)[C@H](CO)NC(=O)[C@@H](NC(=O)[C@H](Cc1ccccc1)NC(=O)[C@@H](NC(=O)CNC(=O)[C@H](CCC(N)=O)NC(=O)[C@H](CO)NC(=O)[C@@H](N)Cc1cscn1)[C@@H](C)O)[C@@H](C)O)C(=O)N[C@@H](CCC(=O)O)C(=O)N[C@@H](CO)C(=O)N[C@@H](CCCNC(=N)N)C(=O)N[C@@H](CCCNC(=N)N)C(=O)N[C@@H](C)C(=O)N[C@@H](CCC(N)=O)C(=O)N[C@@H](CC(=O)O)C(=O)N[C@@H](Cc1ccccc1)C(=O)N[C@H](C(=O)N[C@@H](CCC(=O)O)C(=O)N[C@@H](Cc1c[nH]c2ccccc12)C(=O)N[C@@H](CC(C)C)C(=O)N[C@@H](CC(C)C)C(=O)N[C@@H](C)C(=O)N[C@H](C(=O)NCC(=O)N1CCC[C@H]1C(=O)N[C@@H](CCC(=O)O)C(=O)N[C@@H](CO)C(=O)NCC(=O)N[C@@H](C)C(=O)N1CCC[C@H]1C(=O)N1CCC[C@H]1C(=O)N1CCC[C@H]1C(=O)N[C@@H](CO)C(=O)O)[C@@H](C)O)[C@@H](C)CC` [SEQ ID NO 3, Tza-S-Q-G-T-F-T-S-D-L-S-K-Q-Nle-ESRRAQDFIEWLLATGPESGAPPPS-OH] (H-[Ala(4-thiazolyl)]SQGTFTSDLSKQ[Nle]ESRRAQDFIEWLLATGPESGAPPPS-OH) showed a solubility at 2 h [1] of over 10000 µg/mL, a pEC50 [2] of 11.74 and a pEC50 ([3]; Table 4) of 7.35.

In the case of `CC[C@H](C)[C@H](NC(=O)[C@H](Cc1ccccc1)NC(=O)[C@H](CCC(=O)O)NC(=O)[C@H](CCC(N)=O)NC(=O)[C@H](C)NC(=O)[C@H](CCCNC(=N)N)NC(=O)[C@H](CCCNC(=N)N)NC(=O)[C@H](CO)NC(=O)[C@H](CCC(=O)O)NC(=O)[C@H](CC(C)C)NC(=O)[C@H](CCC(N)=O)NC(=O)[C@H](CCCCN)NC(=O)[C@H](CO)NC(=O)[C@H](Cc1ccc(O)cc1)NC(=O)[C@H](CC(=O)O)NC(=O)[C@H](CO)NC(=O)[C@@H](NC(=O)[C@H](Cc1ccccc1)NC(=O)[C@@H](NC(=O)CNC(=O)[C@H](CCC(N)=O)NC(=O)[C@H](CO)NC(=O)[C@@H](N)Cc1cscn1)[C@@H](C)O)[C@@H](C)O)C(=O)N[C@@H](CCC(=O)O)C(=O)N[C@@H](Cc1c[nH]c2ccccc12)C(=O)N[C@@H](CC(C)C)C(=O)N[C@@H](CC(C)C)C(=O)N[C@@H](C)C(=O)NCC(=O)NCC(=O)N1CCC[C@H]1C(=O)N[C@@H](CCC(=O)O)C(=O)N[C@@H](CO)C(=O)NCC(=O)N[C@@H](C)C(=O)N1CCC[C@H]1C(=O)N1CCC[C@H]1C(=O)N1CCC[C@H]1C(=O)N[C@@H](CO)C(=O)O` [SEQ ID NO 5, Tza-SQGTFTSDYSKQLESRRAQEFIEWLLAGGPESGAPPPS-OH], the solubility at 2 h [1] was over 10000 µg/mL, the “time of blood glucose peak after injection” value (shortened to “time of blood glucose peak”) (hepatic glycogenolysis; 10 μg/kg s.c.) was 30 min and the “blood glucose excursion compared to 30 μg/kg GCG” value (hepatic glycogenolysis; 20 μg/kg s.c.) was “nearly comparable shape of blood glucose excursion”. The “time of blood glucose peak” value (hepatic glycogenolysis; 20 μg/kg s.c.) was 45 min, the “time of blood glucose peak” value (hepatic glycogenolysis; 30 μg/kg s.c.) was 90 min and the “effect on blood glucose” value (hepatic glycogenolysis) was “dose-dependent increase of blood glucose”. The “peak increase of blood glucose” value (blood glucose; 10 μg/kg s.c., dog) was 3.5 to 4 mmol/L, the “subcutaneous versus intramuscular injection” value (blood glucose; dog) was “no difference in activity and blood glucose time-action profile” and the “glucose excursion at higher doses” value (blood glucose; doses beyond 10 μg/kg s.c., dog) was “did no longer result in higher glucose excursion”. For the same molecule, the “effect on blood glucose relative to human glucagon” value (blood glucose; dog) was “mimicked the effect of human glucagon on blood glucose”, the “duration of the glucose response” value (blood glucose; s.c., dog, versus human glucagon) was “slightly longer” and the “induction of a blood glucose response, SEQ. ID 5 vs. SEQ. ID 6” value (blood glucose; s.c.) was “similarly active”. For the same molecule, the “activity by route of administration” value (blood glucose; subcutaneous, intramuscular and intravenous injection, dog) was “active through all parenteral routes” and the pEC50 ([3]; Table 4) was 8.66.

With `CC[C@H](C)[C@H](NC(=O)[C@H](Cc1ccccc1)NC(=O)[C@H](CCC(=O)O)NC(=O)[C@H](CCC(N)=O)NC(=O)[C@H](C)NC(=O)[C@H](CCCNC(=N)N)NC(=O)[C@H](CCCNC(=N)N)NC(=O)[C@H](CO)NC(=O)[C@H](CCC(=O)O)NC(=O)[C@H](CC(C)C)NC(=O)[C@H](CCC(N)=O)NC(=O)[C@H](CCCCN)NC(=O)[C@H](CO)NC(=O)[C@H](Cc1ccc(O)cc1)NC(=O)[C@H](CC(=O)O)NC(=O)[C@H](CO)NC(=O)[C@@H](NC(=O)[C@H](Cc1ccccc1)NC(=O)[C@@H](NC(=O)CNC(=O)[C@H](CCC(N)=O)NC(=O)[C@H](CO)NC(=O)[C@@H](N)Cc1cscn1)[C@@H](C)O)[C@@H](C)O)C(=O)N[C@@H](CCC(=O)O)C(=O)N[C@@H](Cc1c[nH]c2ccccc12)C(=O)N[C@@H](CC(C)C)C(=O)N[C@@H](CC(C)C)C(=O)N[C@@H](C)C(=O)N[C@H](C(=O)NCC(=O)N1CCC[C@H]1C(=O)N[C@@H](CCC(=O)O)C(=O)N[C@@H](CO)C(=O)NCC(=O)N[C@@H](C)C(=O)N1CCC[C@H]1C(=O)N1CCC[C@H]1C(=O)N1CCC[C@H]1C(=O)N[C@@H](CO)C(=O)O)[C@@H](C)O` [SEQ ID NO 6, Tza-SQGTFTSDYSKQLESRRAQEFIEWLLATGPESGAPPPS-OH] the solubility at 2 h [1] was over 10000 µg/mL, the “blood glucose excursion compared to 30 μg/kg GCG” value (hepatic glycogenolysis; 10 μg/kg s.c.) was “more powerful blood glucose excursion” and the “time of blood glucose peak” value (hepatic glycogenolysis; 10 μg/kg s.c.) was 30 min. For the same molecule, the “time of blood glucose peak” value (hepatic glycogenolysis; 30 μg/kg s.c.) was 60 min, the “effect on blood glucose” value (hepatic glycogenolysis) was “dose-dependent increase of blood glucose” and the “effect on blood glucose relative to human glucagon” value (blood glucose; dog) was “mimicked the effect of human glucagon on blood glucose”. The “induction of a blood glucose response, SEQ. ID 5 vs. SEQ. ID 6” value (blood glucose; s.c.) was “similarly active” and the pEC50 ([3]; Table 4) was 8.03.

Molecule `CC[C@H](C)[C@H](NC(=O)[C@H](Cc1ccccc1)NC(=O)[C@H](CC(=O)O)NC(=O)[C@H](CCC(N)=O)NC(=O)[C@H](C)NC(=O)[C@H](CCCNC(=N)N)NC(=O)[C@H](CCCNC(=N)N)NC(=O)[C@H](CO)NC(=O)[C@H](CCC(=O)O)NC(=O)[C@H](CC(C)C)NC(=O)[C@H](CCC(N)=O)NC(=O)[C@H](CCCCN)NC(=O)[C@H](CO)NC(=O)[C@H](CC(C)C)NC(=O)[C@H](CC(=O)O)NC(=O)[C@H](CO)NC(=O)[C@@H](NC(=O)[C@H](Cc1ccccc1)NC(=O)[C@@H](NC(=O)CNC(=O)[C@H](CCC(N)=O)NC(=O)[C@H](CO)NC(=O)[C@@H](N)Cc1cscn1)[C@@H](C)O)[C@@H](C)O)C(=O)N[C@@H](CCC(=O)O)C(=O)N[C@@H](Cc1c[nH]c2ccccc12)C(=O)N[C@@H](CC(C)C)C(=O)N[C@@H](CC(C)C)C(=O)N[C@@H](C)C(=O)N[C@H](C(=O)NCC(=O)N1CCC[C@H]1C(=O)N[C@@H](CCC(=O)O)C(=O)N[C@@H](CO)C(=O)NCC(=O)N[C@@H](C)C(=O)N1CCC[C@H]1C(=O)N1CCC[C@H]1C(=O)N1CCC[C@H]1C(=O)N[C@@H](CO)C(=O)O)[C@@H](C)O` [SEQ ID NO 15, Tza-SQGTFTSDLSKQLESRRAQDFIEWLLATGPESGAPPPS-OH] (H-[Ala(4-thiazolyl)]SQGTFTSDLSKQLESRRAQDFIEWLLATGPESGAPPPS-OH) has a solubility at 2 h [1] of over 10000 µg/mL, a pEC50 [2] of 11.66 and a pEC50 ([3]; Table 4) of 7.46. For the same molecule, the pEC50 ([3]; Table 5, Tza vs. His in position 1) was 7.71.
